We go through one molecule from patent US20250281478A1, “METHODS FOR PREVENTING OR TREATING KIDNEY DISEASES” (JEAMOON BEIJING CO., LTD., priority 2022, published 2025).

Holding throughout (assay type): in vivo, C57BL/6N mice
Experiment [1] relates to mice with adenine-induced renal failure. The experiment can be described thus: Serum creatinine (CREA) in adenine-induced renal failure mice. The conditions noted are these: for CREA after modeling for 3 weeks (after drug administration for 2 weeks) / CREA after modeling for 1 week (before drug administration): mean ± SD. As for the experimental part:
• a) Control group: Fed with adenine-free feed; other procedures were the same as those in the model group. • b) Model group: Fed with feed containing 0.25% adenine for modelling. • c) LY-10 mg/kg group: Model+LY2922470 (10 mg/kg, p.o., QD). • d) LY-30 mg/kg group: Model+LY2922470 (30 mg/kg, p.o., QD). • e) LY-60 mg/kg group: Model+LY2922470 (60 mg/kg, p.o., QD). • f) TAK875 group: Model+TAK875 (30 mg/kg, p.o., QD).
Except for the control group, all other mice were fed with a diet containing 0.25% adenine for modelling. The control group was fed with a normal diet. All mice were allowed free access to food. One week after modeling, each group of mice was administered the respective treatment via oral gavage once daily in the afternoon for two consecutive weeks. The control group and the model group received vehicle under a same condition. The adenine-containing diet was continuously administered for modeling throughout the treatment period until the end of the experiment. The physical condition of the mice was monitored, and body weight was measured and recorded weekly. Blood samples were collected from the orbital venous plexus at 1 week (post-modeling) and 3 weeks (after 2 weeks of treatment). Serum was separated for the measurement of serum creatinine (CRE) and blood urea nitrogen (BUN). At the end of the two-week treatment, renal function of each group was assessed using a TGFR renal function monitoring and smart analysis system. After testing, tissues were collected from the mice to confirm the efficacy of the treatment.
Statistical analyses were performed using GraphPad Prism 8.0 software. Continuous data of each group were expressed as mean+SD. One-way ANOVA was used for multi-group comparisons, and Student's t-test was used for comparisons between two groups. A p-value<0.05 was considered statistically significant. For categorical data, chi-square tests were used to compare between groups, with p<0.05 indicating a statistically significant difference.
Mice were fed a 0.25% adenine-containing diet. After one week, the mice were treated with LY2922470 or TAK875. During the treatment period, the adenine-containing diet was continued for modeling. After three weeks of adenine feeding (i.e., two weeks of drug administration), blood samples were collected from the mice, and serum was isolated for CREA and BUN measurements.

Experiment [2] deals with mice with two-week adenine-induced renal failure. As to the kind of experiment: Glomerular filtration rate in mice with two-week adenine-induced renal failure. The conditions noted are these: adenine diet replaced with normal chow after two weeks; LY2922470 p.o.; FIG. 5. The text has this: Therefore, the modeling protocol was redesigned to re-evaluate the therapeutic effect of LY2922470 on renal failure (the adenine diet was replaced with normal chow after two weeks of feeding; other conditions remained unchanged).

In experiment [3] the test system is mice with adenine-induced renal failure. The experiment can be described thus: Renal fibrosis by Masson's trichrome staining in adenine-induced renal failure mice. The settings on record: LY2922470 30 mg/kg/day orally for 2 weeks; 3 weeks of modeling; FIG. 6. As for the experimental part: Mice were modeled and administered drugs as described in Example 3. After two weeks of drug administration, the mice were euthanized, and their kidneys were fixed, sectioned, stained with Masson's trichrome, and analyzed.
Whole-slide scanning was performed using a fully automated digital pathology scanner KF-PRO-120 from Ningbo Jiangfeng Bioinformatics Technology Co., Ltd. Masson-stained images were analyzed using the Area Quantification module in HALO software. The blue staining of collagen fibers was used as the unified criterion for positivity. The images were analyzed, and the percentage of blue-stained collagen fibers in the tissue was calculated.
Statistical analysis was conducted using GraphPad Prism 8.0. Continuous data for each group were expressed as mean+SD. One-way ANOVA was used for multi-group comparisons, and Student's t-test was used for comparisons between two groups. A p-value<0.05 was considered statistically significant. For categorical data, chi-square tests were used for comparisons among groups, and a p-value<0.05 was considered statistically significant.

The test system is the same in experiment [4]. As to the kind of experiment: Survival of mice with adenine-induced renal failure. The conditions noted are these: for Survival Rate (%): started 1 week after start of continued 0.25% adenine diet, end of experiment; for Count after Drug Administration (surviving mice): 12 at enrollment. Here is the method: • 1. Experimental Animals: C57BL/6N, 8 weeks old, SPF grade, male. • 2. Experimental Drugs: • LY2922470 (Shanghai Taoshu Biotechnology Co., Ltd.) • TAK875 (Shanghai Taoshu Biotechnology Co., Ltd.)
1) Preparation of TAK875: A total of 27 mg of TAK875 powder was accurately weighed using an analytical balance and dissolved in 9 mL of 0.8% CMC-Na solution. The mixture was sonicated for 5 minutes to form a 3 mg/mL white suspension. The suspension was stored at 4° C. for later use.
2) Preparation of LY2922470: A total of 80 mg of LY2922470 yellow crystals was added to 200 μL of DMSO to form a clear yellow solution. The solution was gradually added in batches to 10 mL of 0.8% CMC-Na solution. After heating and sonication for 5 hours, an 8 mg/mL white suspension of LY2922470 was obtained. The suspension was stored at 4° C. for later use.
Eight-week-old male C57BL/6N mice were acclimatized for one week and then randomly divided into six groups. Except for the control group, all mice were fed a 0.25% adenine-containing diet for modelling. The control group received a normal diet. The mice had free access to food. One week after model induction, mice in each group were orally administered the corresponding drug once daily in the afternoon, according to their group assignment. The control group and the model group received vehicle under a same condition. During the treatment period, the adenine-containing diet was continued. Mouse survival was monitored until the end of the experiment.

Where [5] appears, read: based on Tables 2 and 3 (CREA and BUN), p.o.

SMILES strings stand for the structures. A value given as a limit tells only on which side of the number the result lay.

Turning to `CC#C[C@@H](CC(=O)O)c1ccc(OCc2ccc(CN3CCCc4cccc(OC)c43)s2)cc1` [LY2922470], the “CREA level compared with the model group” value in experiment [1] (LY2922470 30 mg/kg p.o. QD for 2 weeks) and in experiment [1] (LY2922470 60 mg/kg p.o. QD for 2 weeks) was “significantly decreased” in each case. In addition, the results for the “CREA after modeling for 3 weeks (after drug administration for 2 weeks)” value in experiment [1] (LY2922470 30 mg/kg p.o. QD) and in experiment [1] (LY2922470 60 mg/kg p.o. QD) were 79.67 ± 19.28 µmol/L and 66.47 ± 13.35 µmol/L, respectively. The “Serum CREA level compared with the model group” value in experiment [1] (LY2922470 at different doses p.o. QD for 2 weeks) is reported as “reduced”. For the same molecule, the “Dose with the best effect (CREA, BUN)” value in experiment [1] (setting [5]) turned out to be 30 mg/kg/day. In experiment [1] (setting [5]), the “Doses with therapeutic efficacy (CREA, BUN)” value fell in the range of 30 to 60 mg/kg/day. Besides, the results for the “CREA after modeling for 1 week (before drug administration)” value in experiment [1] (baseline of the LY2922470 10 mg/kg group), in experiment [1] (baseline of the LY2922470 30 mg/kg group) and in experiment [1] (baseline of the LY2922470 60 mg/kg group) were 56.14 ± 13.41 µmol/L, 54.85 ± 17.55 µmol/L and 57.02 ± 11.90 µmol/L, respectively. In addition, in experiment [2], the “Renal function (GFR) compared with the model group” value was “significantly improved”. Further, in experiment [3], the “Collagen deposition (Masson staining)” value was “decreased”. For the same molecule, the “Degree of renal fibrosis (Masson staining)” value in experiment [3] is “alleviated”. The “Extracellular matrix (ECM) accumulation” value in experiment [3] is given as “inhibited”. Further, the “Survival Rate (%)” value is recorded as 0% in experiment [4] (LY2922470 10 mg/kg p.o. QD); 100% in experiment [4] (LY2922470 30 mg/kg p.o. QD, 30 mg/kg); 100% in experiment [4] (LY2922470 30 mg/kg p.o. QD, listed as LY); 50% in experiment [4] (LY2922470 60 mg/kg p.o. QD, listed as LY). In addition, the results for the “Count after Drug Administration (surviving mice)” value in experiment [4] (LY2922470 10 mg/kg p.o. QD), in experiment [4] (LY2922470 30 mg/kg p.o. QD) and in experiment [4] (LY2922470 60 mg/kg p.o. QD) were 0, 12 and 6, respectively. For the same molecule, the “Day of adenine feeding by which all mice had died” value in experiment [4] (LY2922470 10 mg/kg p.o. QD, deaths began on day 20) is at most 27 days. Moreover, the “Final survival rate relative to the TAK875 group” value in experiment [4] (LY2922470 30 mg/kg vs TAK875 30 mg/kg) is “double”. Also, in experiment [4] (from Table 1 survival data, p.o.), the “Dose with optimal effect (survival)” value is 30 mg/kg/day.
